Tested on: ACE2-dependent pseudotypes
Format: cell-based

Cc1ccc(S(=O)(=O)Nc2ccc(C(F)(F)F)cc2C(=O)Nc2nc(-c3ccc(Br)cc3)cs2)cc1 [XH161-102 (MS102), N-(4-(4-bromophenyl)thiazol-2-yl)-2-((4-methylphenyl)sulfonamido)-5-(trifluoromethyl)benzamide]
activity in preventing cell entry of ACE2-dependent pseudotypes: enhanced activity
